Here are results for one compound from article PMC6272905, “In Vitro and In Vivo Characterization of Selected Fluorine-18 Labeled Radioligands for PET Imaging of the Dopamine D3 Receptor” (Molecules, 2016).

The nature of data set [1]: Free fraction in rat plasma. To be noted: rat plasma, Figure 3b. The class given is in vitro ADME. How it is done: The free fraction in vitro was determined by adding the respective radioligand (100 kBq) to plasma or CSF (200 µL) and mixed vigorously. Aliquots of 20–50 µL were transferred to size exclusion chromatography columns (MicroSpin G-50; GE Healthcare GmbH, Solingen, Germany, centrifuged for two min at 2000 rpm, and the radioactivity in the filtrate and in the resin were measured in the gamma-counter. Three independent experiments were performed in triplicates.
For the ex vivo determination of the radioligands binding to proteins the respective tracer (15 MBq) was administered intravenous to male Sprague Dawley rats (200–250 g) under isoflurane anesthesia. Blood samples were drawn intravenous after 5, 15 and 30 min and centrifuged for 5 min at 2000 rpm in heparin-coated vials. An aliquot of 50 µL was taken from the supernatant and added to an equal volume of water (10% TFA). The protein precipitate was centrifuged off for 5 min at 25,000 rpm and analyzed together with a further 50 µL aliquot of the supernatant in the gamma-counter. Two independent experiments were performed.

For a further data set, the target named is T1, D3 receptor in rat brain (Rattus norvegicus, UniProt P19020).
T1 construct: from tissue; host or cells: brain cryosections (12 µm) of male Wistar rats
T1 sequence (P19020 whole entry): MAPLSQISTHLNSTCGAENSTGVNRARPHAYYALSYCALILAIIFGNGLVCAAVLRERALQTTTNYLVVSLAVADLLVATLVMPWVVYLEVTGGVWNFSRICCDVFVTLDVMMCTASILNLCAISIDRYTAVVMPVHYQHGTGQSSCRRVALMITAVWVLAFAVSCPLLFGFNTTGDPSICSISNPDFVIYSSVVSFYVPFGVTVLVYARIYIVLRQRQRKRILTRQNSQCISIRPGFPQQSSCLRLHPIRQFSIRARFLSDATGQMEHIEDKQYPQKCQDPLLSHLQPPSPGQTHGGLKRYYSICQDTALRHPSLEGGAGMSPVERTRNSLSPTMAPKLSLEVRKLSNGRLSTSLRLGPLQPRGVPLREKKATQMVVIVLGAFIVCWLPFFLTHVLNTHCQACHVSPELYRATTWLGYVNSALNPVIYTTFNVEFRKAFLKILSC
The data set is described as follows: Saturation binding assay on rat brain sections. Conditions: for Bmax: rat brain sections, n = 4.

A further data set deals with dopamine D3 receptor. The data set is described as follows: Ex vivo autoradiography of rat brain sections. It counts as in vivo. How it is done: Male Sprague Dawley rats (250–300 g) were injected with 20 MBq of [^18F]2b intra-venous under isoflurane (4%) anesthesia. For blocking studies BP897 (1 mg/kg) was administerd 30 min prior to radioligand injection. Rats were sacrificed by decapitation 30 min post radioligand injection and brains were removed and frozen in cooled hexane at −70 °C. Coronal and horizontal brain sections (12 µm) were cut on a cryostat microtome (HM550, Microm) and thaw-mounted on covered glass slides (Histobond®). The glass slides were placed on a phosphor screen (Fujitsu) over night. The screens were analyzed with a DUERR Medical HD-CR 35 Bio (Raytest) and evaluated using the software AIDA image analyzer (Raytest). Afterwards the sections were HE stained and ascribed to figures in the rat brain atlas. Binding in the regions of interest were evaluated as ratio of the activity in the region of interest through background activity. Binding in the cerebral matter of the respective sections was defined as background activity.

The target of data set [2] is T2, P-gp (Homo sapiens, UniProt P08183).
T2 construct: endogenous in cells; host or cells: Caco-2
T2 sequence (P08183 whole entry): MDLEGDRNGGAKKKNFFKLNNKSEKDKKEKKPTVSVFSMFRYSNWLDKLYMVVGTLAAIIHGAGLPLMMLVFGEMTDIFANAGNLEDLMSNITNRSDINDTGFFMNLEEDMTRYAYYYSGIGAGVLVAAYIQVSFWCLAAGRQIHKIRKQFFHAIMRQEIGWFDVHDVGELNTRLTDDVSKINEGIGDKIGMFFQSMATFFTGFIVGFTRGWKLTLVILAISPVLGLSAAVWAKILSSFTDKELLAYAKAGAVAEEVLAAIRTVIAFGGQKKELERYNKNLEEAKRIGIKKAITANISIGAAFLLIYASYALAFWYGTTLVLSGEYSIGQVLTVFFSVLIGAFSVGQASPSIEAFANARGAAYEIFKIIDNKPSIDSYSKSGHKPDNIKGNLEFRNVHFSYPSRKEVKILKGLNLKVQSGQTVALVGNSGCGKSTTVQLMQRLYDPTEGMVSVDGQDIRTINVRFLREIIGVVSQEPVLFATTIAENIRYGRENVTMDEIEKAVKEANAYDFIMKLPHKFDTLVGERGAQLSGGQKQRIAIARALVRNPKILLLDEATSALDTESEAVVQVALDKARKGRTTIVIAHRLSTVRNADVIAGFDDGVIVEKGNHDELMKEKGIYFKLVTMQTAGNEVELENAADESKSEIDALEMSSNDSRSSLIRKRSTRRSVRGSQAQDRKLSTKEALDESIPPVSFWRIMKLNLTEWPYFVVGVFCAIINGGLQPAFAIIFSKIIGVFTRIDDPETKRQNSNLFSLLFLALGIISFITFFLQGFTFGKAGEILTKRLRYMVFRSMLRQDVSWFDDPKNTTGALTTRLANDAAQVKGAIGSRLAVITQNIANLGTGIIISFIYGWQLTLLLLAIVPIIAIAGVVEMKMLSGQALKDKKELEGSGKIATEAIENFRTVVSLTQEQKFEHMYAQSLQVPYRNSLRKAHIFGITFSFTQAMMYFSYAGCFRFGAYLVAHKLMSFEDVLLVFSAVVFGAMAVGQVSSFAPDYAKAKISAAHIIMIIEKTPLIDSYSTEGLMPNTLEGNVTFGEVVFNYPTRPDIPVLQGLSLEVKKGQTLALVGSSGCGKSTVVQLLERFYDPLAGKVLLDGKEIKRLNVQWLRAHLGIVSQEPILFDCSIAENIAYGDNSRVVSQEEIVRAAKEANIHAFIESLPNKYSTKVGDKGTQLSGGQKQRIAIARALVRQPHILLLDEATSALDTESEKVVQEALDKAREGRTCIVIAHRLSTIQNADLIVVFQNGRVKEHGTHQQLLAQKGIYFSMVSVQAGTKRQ
In words: P-gp inhibition assay (cellular uptake) in Caco-2 cells. The class given is cell-based. How it is done: EA.hy926 cells were seeded in culture medium at confluency the day prior to experiment or in case of the Caco-2 cells two days prior to experiment in 24-multiwell plates (Greiner Bio-One International GmbH, Kremsmünster, Austria). On the day of the experiment the culture medium was removed and the cells were washed once with PBS (500 µL). Culture medium supplemented with cyclosporine-A (5 µM for EA.hy926 and 10 µM for Caco-2) was added and the cells were incubated at 37 °C for 30 min. Afterwards 1 MBq of [^18F]2b was added to each well and incubated for further 30, 60 and 90 min. After incubation cells were washed with ice cold PBS (500 µL) and lysated with 0.1 M NaOH. The medium and lysates were analysed in the gamma-counter. To identify cyclosporine-A induced accumulation the experiment was also performed using culture medium lacking cyclosporine-A. As positive control the experiment was performed with ^99mTc-MIBI (100 kBq/well), a known P-gp substrate. To determine the lowermost concentration with which a maximum effect was obtained, cyclosporine-A was applied in a range of 0–50 µM and observed in a time frame of 30–120 min for both cell lines.

Data set [3] deals with T2, P-gp. In words: Bi-directional transport assay in Caco-2 cells. It counts as cell-based. The protocol:
The procedure of initially adding equal concentrations to both compartments was adapted from the literature. Caco-2 cells were seeded near confluency in thin-cert inserts (translucent, Ø 0.4 µm, 24 well PET membrane, Greiner) and placed in multiwell plates (CELLSTAR 24 Multiwell plates, Greiner). The culture medium basolateral (multiwell) and apical (insert) was renewed every 2–3 days. Approximately 12 days after seeding the Caco-2 cells reached their highest trans-epithelial resistance, which was monitored every four days and on day of the experiment. An immunocytochemistry was also performed with an additional insert (translucent) to confirm stable formation of tight-junctions and cell monolayer. Culture medium was then removed and the cells were washed with PBS. Culture medium supplemented with cyclosporin (10 µM) was added to both compartments and the cells were incubated at 37 °C for 30 min. Afterwards 1 MBq [^18F]2b was added to each compartment. An aliquot was taken from each compartment after 0, 30, 60 and 90 min and analyzed in the gamma-counter. To identify cyclosporine-A induced accumulation the experiment was also performed using culture medium lacking cyclosporine-A. As positive control the experiment was performed with ^99mTc-MIBI (100 kBq/ compartment).

[4] abbreviates: lateral ventricle, coronal section (Interaural 4.70, Bregma −4.30).
[5] abbreviates: third ventricle, horizontal section (Interaural 5.90, Bregma −4.10).
[6] abbreviates: Caco-2, absence of cyclosporin-A, up to 90 min.

“And” between values parts separate entries of the source, which are not always exact repeats. Identical values can stand only once.

For the compound `COc1ccccc1N1CCN(CCCCNC(=O)/N=N/c2ccc([18F])cc2)CC1` [[^18F]2b], the “free radioligand in rat plasma” value in data set [1] was 80%. Further, the Kd on D3 receptor in rat brain (all three regions) was approximately 0.1 nM; at D3 receptor in rat brain (caudate putamen), 0.08 ± 0.06 nM; on D3 receptor in rat brain (islands of calleja), 0.1 ± 0.01 nM; at D3 receptor in rat brain (nucleus accumbens) it was 0.11 ± 0.07 nM. Besides, the Bmax is 16.58 pmol/g and 16.58 ± 1.63 pmol/g on D3 receptor in rat brain (caudate putamen (striatum)); 20.38 pmol/g and 20.38 ± 2.67 pmol/g on D3 receptor in rat brain (islands of calleja); 19.54 pmol/g and 19.54 ± 1.85 pmol/g on D3 receptor in rat brain (nucleus accumbens). Further, the “ratio ROI/background” value with dopamine D3 receptor (lateral and third ventricle, section (Interaural 5.70, Bregma −3.30)) was 22; with dopamine D3 receptor (lateral and third ventricle, sections (Interaural 10.60, Bregma 1.60) and (Interaural 7.70, Bregma −1.30), 30 min p.i.) it was approximately 15; in the data set with dopamine D3 receptor (setting [4]), approximately 30; in the data set on dopamine D3 receptor (setting [5]) it was 32. For the same compound, the “displacement by BP897” value with dopamine D3 receptor (lateral and third ventricle, sections (Interaural 10.60, Bregma 1.60) and (Interaural 7.70, Bregma −1.30)) is reported as “no displacement”; in the data set on dopamine D3 receptor (section (Interaural 5.70, Bregma −3.30)), 40%–50%. The “displacement with BP897” value in the data set on dopamine D3 receptor (setting [4]) turned out to be 60%. Moreover, in the data set on dopamine D3 receptor (setting [5]), the “displacement through BP897” value turned out to be 50%. The “percentage inside the cells” value on P-gp [2] amounted to 10%. For the same compound, on P-gp [2] (with vs without cyclosporin-A), the “influence of cyclosporin-A on cellular uptake” value is “did not increase the uptake”. Moreover, the “concentration in the apical compartment, % of the initial concentration” value is 90% on P-gp [3] (setting [6]); 80% at P-gp [3] (Caco-2, presence of cyclosporin-A (^99mTc-MIBI after 60 and 90 min; [^18F]2b after 30 min)). Besides, the “concentration in the basolateral compartment, % of the initial concentration” value on P-gp [3] (setting [6]) was found to be 100%. In addition, the “concentration in the basolateral compartment” value at P-gp [3] (Caco-2, presence of cyclosporin-A) is “stayed nearly constant”. Moreover, the P-gp substrate entry at P-gp [3] (conclusion from inhibition and transport assays) is on record as “no P-gp substrate”.
